Several values for one entry are separate records, joined by “and”; a condition that tells them apart may be missing. Equal values may be shown once.
System: conscious telemetered beagle dogs
Experiment: Left-ventricular hemodynamic, mechanical and timing indices by radio-telemetry before and during IV OM or vehicle, on repeated oral IVA or placebo
Format: in vivo, beagle dog
Procedure: Healthy male beagle dogs (n=7) instrumented with radio-telemetry units providing continuous single-lead electrocardiogram (ECG), as well as systemic (arterial, AoP) and left-ventricular (LVP) pressure signals were used for this study. Following sling acclimation, the animals were assigned to receive repeated oral (via gavage) treatments with either Ivabradine (IVA, 5 mg/kg bid) or a volume-matched placebo-control (sterile water, CTRL) for 5 days, administered at a dose volume of 10 mL/kg, in a cross over design.
The animals were sling-restrained and were subjected to acute intravenous administration of either sterile water (VEH, on Days 4 and 11 of dosing) or Omecamtiv Mecarbil (OM, on Days 5 and 12 of dosing). OM treatments were performed over a 3-hour infusion duration, following a dose-escalation design targeting plasma concentrations of 600 and 1000 ng/mL (each over 90 minutes, with a 30 minute loading infusion followed by a 60 minute maintenance infusion) for a cumulative dose of 5.293 mg/kg (as shown in Table A below). The IV vehicle treatments were time- and volume-matched.
Telemetered data were collected continuously for at least 90 minutes prior to and during dosing, as well as for at least 20 hours post-dose. The LVP and ECG signals were digitized at a sampling rate of at least 1000 Hz. The data were analyzed for heart rate (HR) and left-ventricular hemodynamic/mechanical indices that were obtained from the pressure waveform, including mean systolic (MSP) and end-diastolic (filling, EDP) pressures, the peak rates of pressure change during systole/diastole (dP/dtmax/min), as well as the time-constant of relaxation (tau) and a contractility index (CI: dP/dtmax normalized by the pressure at dP/dtmax). The data were also analyzed for systolic and diastolic intervals, including the estimated durations of the systolic ejection (SET), contraction (CT), active relaxation (RT) and filling intervals (FT), as well as the systolic-to-diastolic interval ratio (S/D: SET/RT+FT), which were derived from the left-ventricular pressure waveform.
The left-ventricular indices were evaluated only in the sling-restrained animals before and during IV treatment with OM or vehicle. Cardiovascular responses at each dose level were monitored for up to 90 minutes, i.e., over 3 hours total (during IV dosing of VEH and OM on Days 4, 5, 11, and 12 in the dose administration paradigm). Overall, in-sling cardiovascular data are reported at the following pre-determined/targeted time points: prior to dosing (i.e., at baseline, PRE) and approximately at the end of each infusion period (i.e., up to 4 time points during dosing, D1 to D4). Signals were analyzed continuously in 5-minute epochs, with pre-administration (i.e., PRE) values representing the overall mean over at least 5-epochs (i.e., 25 minutes) taken immediately prior to the onset of dosing, while during-dosing values reflect 5-minute averages (i.e., 1 epoch) taken prior to the (estimated) termination of each infusion. Data are presented as both means with standard deviations in summarizing tables/figure; beat-to-beat plots against heart rate are part of the study file.

[1] = D1, end of 30-min loading infusion, target OM 600 ng/mL
[2] = D2, end of 60-min maintenance infusion, target OM 600 ng/mL
[3] = D3, end of 30-min loading infusion, target OM 1000 ng/mL
[4] = D4, end of 60-min maintenance infusion, target OM 1000 ng/mL
[5] = PRE, before IV dosing (baseline)

COC(=O)N1CCN(Cc2cccc(NC(=O)Nc3ccc(C)nc3)c2F)CC1 [OM, methyl 4-(2-fluoro-3-(3-(6-methylpyridin-3-yl)ureido)benzyl)piperazine-1-carboxylate]
CT % vs. PRE [1]: −3%
CT (contraction time) [1]: 65.9 ms
EDP % vs. PRE [1]: −24%
EDP (left-ventricular end-diastolic pressure) [1]: 9.8 mmHg
FT % vs. PRE [1]: 23%
FT (filling time) [1]: 425 ms
HR % vs. PRE [1]: −14%
HR (heart rate) [1]: 86 bpm
MSP % vs. PRE [1]: −2%
MSP (left-ventricular mean systolic pressure) [1]: 127 mmHg
RT % vs. PRE [1]: 13%
RT (relaxation time) [1]: 104 ms
S/D % vs. PRE [1]: 18%
S/D (systolic to diastolic ratio, SET/RT + FT) [1]: 0.41
SET % vs. PRE [1]: 33%
SET (systolic ejection time) [1]: 207 ms
Tau % vs. PRE [1]: 19 ± 3%
Tau (left-ventricular relaxation time-constant) [1]: 36.7 ± 3.6 ms
Vmax % vs. PRE [1]: 3 ± 1%
Vmax (estimated maximal velocity of myocardial contractile-element shortening) [1]: 36.0 ± 1.7 s⁻¹
dP/dtmax % vs. PRE [1]: −6%
dP/dtmax (peak rate of LV pressure change during systole) [1]: 2,243 mmHg/s
dP/dtmin % vs. PRE [1]: −12%
dP/dtmin (peak rate of LV pressure change during diastole) [1]: −1,910 mmHg/s
CT % vs. PRE [2]: −2%
CT (contraction time) [2]: 66.7 ms
EDP % vs. PRE [2]: −33%
EDP (left-ventricular end-diastolic pressure) [2]: 8.5 mmHg
FT % vs. PRE [2]: 2%
FT (filling time) [2]: 321 ms
HR % vs. PRE [2]: 0%
HR (heart rate) [2]: 99 bpm
MSP % vs. PRE [2]: 0%
MSP (left-ventricular mean systolic pressure) [2]: 130 mmHg
RT % vs. PRE [2]: 20%
RT (relaxation time) [2]: 110 ms
S/D (systolic to diastolic ratio, SET/RT + FT) [2]: 0.5
SET (systolic ejection time) [2]: 214 ms
Tau % vs. PRE [2]: 33 ± 5%
Tau (left-ventricular relaxation time-constant) [2]: 41.1 ± 4.7 ms
Vmax % vs. PRE [2]: 7 ± 2%
Vmax (estimated maximal velocity of myocardial contractile-element shortening) [2]: 37.2 ± 1.6 s⁻¹
dP/dtmax % vs. PRE [2]: −1±4% and −1%
dP/dtmax (peak rate of LV pressure change during systole) [2]: 2,356 mmHg/s
dP/dtmin % vs. PRE [2]: −19%
dP/dtmin (peak rate of LV pressure change during diastole) [2]: −1,759 mmHg/s
CT % vs. PRE [3]: −1%
CT (contraction time) [3]: 67.0 ms
EDP % vs. PRE [3]: −13%
EDP (left-ventricular end-diastolic pressure) [3]: 10.8 mmHg
FT % vs. PRE [3]: −27%
FT (filling time) [3]: 251 ms
HR % vs. PRE [3]: 11%
HR (heart rate) [3]: 112 bpm
MSP % vs. PRE [3]: 0%
MSP (left-ventricular mean systolic pressure) [3]: 130 mmHg
RT % vs. PRE [3]: 24%
RT (relaxation time) [3]: 114 ms
S/D % vs. PRE [3]: 73%
S/D (systolic to diastolic ratio, SET/RT + FT) [3]: 0.60
SET % vs. PRE [3]: 34%
SET (systolic ejection time) [3]: 208 ms
Tau % vs. PRE [3]: 53 ± 7%
Tau (left-ventricular relaxation time-constant) [3]: 47.6 ± 6.5 ms
Vmax % vs. PRE [3]: 2 ± 2%
Vmax (estimated maximal velocity of myocardial contractile-element shortening) [3]: 35.6 ± 2.0 s⁻¹
dP/dtmax % vs. PRE [3]: −3%
dP/dtmax (peak rate of LV pressure change during systole) [3]: 2,319 mmHg/s
dP/dtmin % vs. PRE [3]: −26%
dP/dtmin (peak rate of LV pressure change during diastole) [3]: −1,608 mmHg/s
CT % vs. PRE [4]: 5%
CT (contraction time) [4]: 71.0 ms
EDP % vs. PRE [4]: 46%
EDP (left-ventricular end-diastolic pressure) [4]: 17.8 mmHg
FT % vs. PRE [4]: −71%
FT (filling time) [4]: 85 ms
HR (heart rate) [4]: 162 bpm
MSP % vs. PRE [4]: −15%
MSP (left-ventricular mean systolic pressure) [4]: 111 mmHg
RT % vs. PRE [4]: 1%
RT (relaxation time) [4]: 93 ms
S/D (systolic to diastolic ratio, SET/RT + FT) [4]: 1.06
SET % vs. PRE [4]: 5%
SET (systolic ejection time) [4]: 162 ms
Tau (left-ventricular relaxation time-constant) [4]: 54.7 ± 9.7 ms
Vmax % vs. PRE [4]: −19±8%
Vmax (estimated maximal velocity of myocardial contractile-element shortening) [4]: 28.4 ± 3.4 s⁻¹
dP/dtmax % vs. PRE [4]: −23%
dP/dtmax (peak rate of LV pressure change during systole) [4]: 1,844 mmHg/s
dP/dtmin % vs. PRE [4]: −41%
dP/dtmin (peak rate of LV pressure change during diastole) [4]: −1,288 mmHg/s
CT (contraction time) [5]: 67.9 ± 0.7 ms
EDP (left-ventricular end-diastolic pressure) [5]: 12.3 mmHg
FT (filling time) [5]: 370 ± 50 ms
HR (heart rate) [5]: 102 bpm
MSP (left-ventricular mean systolic pressure) [5]: 131 mmHg
RT (relaxation time) [5]: 92 ± 3 ms
S/D (systolic to diastolic ratio, SET/RT + FT) [5]: 0.36
SET (systolic ejection time) [5]: 156 ± 7 ms
Tau (left-ventricular relaxation time-constant) [5]: 30.8 ± 2.8 ms
Vmax (estimated maximal velocity of myocardial contractile-element shortening) [5]: 34.9 ± 1.6 s⁻¹
dP/dtmax (peak rate of LV pressure change during systole) [5]: 2,401 mmHg/s
dP/dtmin (peak rate of LV pressure change during diastole) [5]: −2,167 mmHg/s

— patent publication US10543215B2, “Combination therapy of cardiac myosin activator and sinus node if current inhibitor” (AMGEN INC., priority 2015, dated 2020)
